Reference: PubChem BioAssay AID248 (DTP/NCI, 2004)
Toxic doses and inconclusive results are not listed. No stated cut-off is given here; in the data, active means T/C of 150% or more; inactive means T/C below 125%.

System: L1210 leukemia ip in BDF1 mice, survival T/C
Assay: NCI In Vivo Anticancer Drug Screen. Data for tumor model L1210 Leukemia (intraperitoneal) in B6D2F1 (BDF1) mice
Details: endpoint: mean survival time, higher = longer survival
Summary of the method: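 Tumor cells were implanted, animals were treated, and survival was followed. The result divides the treated measurement by the vehicle-control measurement.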

[1] = dose: 100.0 mg/kg/injection, schedule: Q01DX009 (ip), vehicle: saline
[2] = dose: 200.0 mg/kg/injection, schedule: Q01DX009 (ip), vehicle: saline
[3] = dose: 100.0 mg/kg/injection, schedule: Q01DX009 (ip), vehicle: Klucel (hydroxypropylcellulose) (HPC)
[4] = dose: 200.0 mg/kg/injection, schedule: Q01DX009 (ip), vehicle: Klucel (hydroxypropylcellulose) (HPC)
[5] = dose: 400.0 mg/kg/injection, schedule: Q01DX009 (ip), vehicle: Klucel (hydroxypropylcellulose) (HPC)
[6] = dose: 100.0 mg/kg/injection, schedule: Q01DX001 (ip), vehicle: saline
[7] = dose: 200.0 mg/kg/injection, schedule: Q01DX001 (ip), vehicle: saline
[8] = dose: 400.0 mg/kg/injection, schedule: Q01DX001 (ip), vehicle: saline
[9] = dose: 50.0 mg/kg/injection, schedule: Q01DX009 (ip), vehicle: Klucel (hydroxypropylcellulose) (HPC)
[10] = dose: 100.0 mg/kg/injection, schedule: Q04DX003 (ip), vehicle: Klucel (hydroxypropylcellulose) (HPC)
[11] = dose: 200.0 mg/kg/injection, schedule: Q04DX003 (ip), vehicle: Klucel (hydroxypropylcellulose) (HPC)
[12] = dose: 400.0 mg/kg/injection, schedule: Q04DX003 (ip), vehicle: Klucel (hydroxypropylcellulose) (HPC)
[13] = dose: 100.0 mg/kg/injection, schedule: Q01DX Z (ip), vehicle: saline
[14] = dose: 200.0 mg/kg/injection, schedule: Q01DX Z (ip), vehicle: saline
[15] = dose: 25.0 mg/kg/injection, schedule: Q01DX009 (ip), vehicle: Klucel (hydroxypropylcellulose) (HPC)

Measured: T/C

O=S(=O)(NCCBr)c1ccccc1
inactive: dose: 75.0 mg/kg/injection, schedule: Q01DX001 (ip), vehicle: carboxymethylcellulose (CMC) 101 % of control | dose: 150.0 mg/kg/injection, schedule: Q01DX001 (ip), vehicle: carboxymethylcellulose (CMC) 114 % of control | dose: 300.0 mg/kg/injection, schedule: Q01DX001 (ip), vehicle: carboxymethylcellulose (CMC) 108 % of control

CC(C)c1ccccc1OS(=O)(=O)c1ccccc1
inactive: dose: 100.0 mg/kg/injection, schedule: Q04DX003 (ip), vehicle: saline with Tween-80 91 % of control | dose: 200.0 mg/kg/injection, schedule: Q04DX003 (ip), vehicle: saline with Tween-80 95 % of control | dose: 400.0 mg/kg/injection, schedule: Q04DX003 (ip), vehicle: saline with Tween-80 98 % of control

CCCCOB(OCCCC)c1cccc(C(F)(F)F)c1
inactive: [1] 100 % of control | [2] 89 % of control

Cc1cc(N=O)c(NO)cc1C
inactive: [3] 108 % of control | [4] 103 % of control | [5] 118 % of control

Cc1ccc(C)c(SC2CCCCC2=O)c1 (centres undefined)
inactive: [6] 94 % of control | [7] 101 % of control | [8] 97 % of control

NC(=O)NC(=O)/C=C\C(=O)O
inactive: [9] 93 % of control | [3] 98 % of control | [4] 91 % of control

O=C(COc1ccc(Cl)cc1Cl)NNc1ccc([N+](=O)[O-])cc1
inactive: dose: 100.0 mg/kg/injection, schedule: Q04DX002 (ip), vehicle: saline 100 % of control | dose: 200.0 mg/kg/injection, schedule: Q04DX002 (ip), vehicle: saline 92 % of control | dose: 400.0 mg/kg/injection, schedule: Q04DX002 (ip), vehicle: saline 88 % of control

C=CCOc1ccc(OCC=C)nn1
inactive: [10] 104 % of control | [11] 97 % of control | [12] 101 % of control

CCOC(=O)Nc1cc(Cl)c([N+](=O)[O-])c(NC(=O)OCC)n1
inactive: dose: 100.0 mg/kg/injection, schedule: Q01DX001 (ip), vehicle: other 102 % of control | dose: 200.0 mg/kg/injection, schedule: Q01DX001 (ip), vehicle: other 91 % of control

CC1CN=C(N)NC1=O (centres undefined)
inactive: [13] 104 % of control | [14] 119 % of control

O=[N+]([O-])c1ccc(O)c(N=Cc2ccccn2)c1
inactive: [6] 90 % of control | [7] 90 % of control | [8] 100 % of control

Cc1ccc(N)cn1
inactive: [15] 97 % of control | dose: 25.0 mg/kg/injection, schedule: Q04DX003 (ip), vehicle: Klucel (hydroxypropylcellulose) (HPC) 102 % of control | [9] 100 % of control | dose: 50.0 mg/kg/injection, schedule: Q04DX003 (ip), vehicle: Klucel (hydroxypropylcellulose) (HPC) 101 % of control | [3] 90 % of control | [10] 98 % of control

Cc1nnc2[nH]c(=O)[nH]c(=O)c2n1
inactive: dose: 50.0 mg/kg/injection, schedule: Q01DX001 (ip), vehicle: saline 98 % of control | [6] 104 % of control | [7] 101 % of control | [8] 98 % of control

CCCC(=O)CCCCNC(=O)c1ccccc1
inactive: dose: 100.0 mg/kg/injection, schedule: Q04DX002 (ip), vehicle: saline with Tween-80 99 % of control | dose: 200.0 mg/kg/injection, schedule: Q04DX002 (ip), vehicle: saline with Tween-80 89 % of control

CC(=O)Nc1ccc(OC(=O)Nc2ccc([N+](=O)[O-])cc2Cl)cc1
inactive: [1] 102 % of control | dose: 100.0 mg/kg/injection, schedule: Q04DX003 (ip), vehicle: saline 103 % of control | [2] 104 % of control | dose: 200.0 mg/kg/injection, schedule: Q04DX003 (ip), vehicle: saline 100 % of control | dose: 400.0 mg/kg/injection, schedule: Q01DX009 (ip), vehicle: saline 104 % of control | dose: 400.0 mg/kg/injection, schedule: Q04DX003 (ip), vehicle: saline 103 % of control

CCOC(=O)C(C)Oc1cc(C)c(Cl)cc1Cl (centres undefined)
inactive: dose: 50.0 mg/kg/injection, schedule: Q01DX001 (ip), vehicle: carboxymethylcellulose (CMC) 96 % of control | dose: 100.0 mg/kg/injection, schedule: Q01DX001 (ip), vehicle: carboxymethylcellulose (CMC) 96 % of control | dose: 200.0 mg/kg/injection, schedule: Q01DX001 (ip), vehicle: carboxymethylcellulose (CMC) 107 % of control | dose: 400.0 mg/kg/injection, schedule: Q01DX001 (ip), vehicle: carboxymethylcellulose (CMC) 107 % of control

Cc1ccc(C[n+]2cc([O-])on2)cc1C
inactive: [13] 105 % of control | [14] 93 % of control

CCOC(=O)CCc1[nH]c2nnc(C)cc2c1[N+](=O)[O-]
inactive: dose: 56.3 mg/kg/injection, schedule: Q04DX002 (ip), vehicle: Klucel (hydroxypropylcellulose) (HPC) 100 % of control | dose: 112.5 mg/kg/injection, schedule: Q04DX002 (ip), vehicle: Klucel (hydroxypropylcellulose) (HPC) 106 % of control | dose: 225.0 mg/kg/injection, schedule: Q04DX002 (ip), vehicle: Klucel (hydroxypropylcellulose) (HPC) 91 % of control

O=C(c1ccccc1)C1CCCS1(=O)=O (centres undefined)
inactive: [10] 100 % of control | [4] 98 % of control | [11] 96 % of control | [5] 97 % of control | [12] 100 % of control

C/C(=N\NC(=O)C1CCCO1)c1cccc2ccccc12 (centres undefined)
inactive: dose: 12.5 mg/kg/injection, schedule: Q01DX009 (ip), vehicle: Klucel (hydroxypropylcellulose) (HPC) 97 % of control | [15] 114 % of control

CCOc1cccc(Cc2cn(Cc3cccc(NC(=O)c4ccccc4)c3)c(=O)[nH]c2=O)c1
inactive: dose: 100.0 mg/kg/injection, schedule: Q01DX001 (ip), vehicle: saline with Tween-80 93 % of control | dose: 200.0 mg/kg/injection, schedule: Q01DX001 (ip), vehicle: saline with Tween-80 96 % of control | dose: 400.0 mg/kg/injection, schedule: Q01DX001 (ip), vehicle: saline with Tween-80 95 % of control

Ic1ccc(-n2cccc2)cc1
inactive: dose: 100.0 mg/kg/injection, schedule: Q01DX001 (ip), vehicle: steriod suspending solution 95 % of control | dose: 200.0 mg/kg/injection, schedule: Q01DX001 (ip), vehicle: steriod suspending solution 101 % of control | dose: 400.0 mg/kg/injection, schedule: Q01DX001 (ip), vehicle: steriod suspending solution 92 % of control

CCCNC(c1ccc(C=NC(CC)(CO)CO)cc1)C(Cl)(Cl)Cl (centres undefined)
inactive: [6] 89 % of control | [7] 92 % of control | [8] 97 % of control

O=C(/C=C/c1ccccc1)C1CC1
inactive: dose: 100.0 mg/kg/injection, schedule: Q04DX003 (ip), vehicle: other 101 % of control | dose: 200.0 mg/kg/injection, schedule: Q04DX003 (ip), vehicle: other 98 % of control | dose: 400.0 mg/kg/injection, schedule: Q04DX003 (ip), vehicle: other 98 % of control

Clc1ccc(/C=C/c2ccccn2)c(Cl)c1
inactive: dose: 100.0 mg/kg/injection, schedule: Q04DX002 (ip), vehicle: gum acacia 109 % of control | dose: 200.0 mg/kg/injection, schedule: Q04DX002 (ip), vehicle: gum acacia 95 % of control | dose: 400.0 mg/kg/injection, schedule: Q04DX002 (ip), vehicle: gum acacia 87 % of control
